Values joined by “and” are separate entries in the source; they are usually repeats but may differ in a detail not shown here. Equal values may be shown once.
Legend:
TUCAN = experiment: Gene array analysis, keratinocytes: TUCAN; type: cell-based, Human; conditions: 35 μg/ml; UVB
Description: (§1) Human epidermal keratinocytes were seeded into 6-well plates and grown at 37±2° C. and 5±1% CO2 using serum free Epilife media supplemented as recommended by the manufacturer. Upon reaching confluency, the media were removed and the cells were treated overnight with Epilife media containing 1% v/v each of the stock solutions above (Vehicle stock and UTR-1 stock). Final concentration was 35 μg/ml for UTR-1. Two wells in the 6-well plate were prepared for each treatment. After applying the test material the cells were incubated for 24 hours at 37±2° C. and 5±1% CO2.
(§2) At the end of the incubation period the culture media was removed via aspiration and replaced with phosphate buffered saline and the cells were then irradiated with ˜30 mJ/cm^2 of UVB radiation. After the irradiation, the phosphate buffered saline was replaced by fresh culture media and the cells were incubated overnight at 37±2° C. and 5±1% CO2. After the incubation the cell culture media was collected to measure TNF-α release by a commercial ELISA Assay kit. […] In general, (1) the fluorescence intensity of the gene marker should be greater than the background intensity, and (2) the ratio of Cy5/Cy3 (treated/untreated) fluorescence intensity needs to be greater than 1.3 or less than 0.66 to indicate a change of ±30% in gene expression.

EFA6R = experiment: Gene array analysis, keratinocytes: EFA6R; type: cell-based, Human; conditions: 35 μg/ml; UVB
Description: as §1, §2

EPHB4 = experiment: Gene array analysis, keratinocytes: EPHB4; type: cell-based, Human; conditions: 35 μg/ml; UVB
Description: as §1, §2

JAK3 = experiment: Gene array analysis, keratinocytes: JAK3; type: cell-based, Human; conditions: for Ratio of treated/control / Suppression %: 35 μg/ml, UVB
Description: as §1
(§3) At the end of the incubation period the culture media was removed via aspiration and replaced with phosphate buffered saline and the cells were then irradiated with ˜30 mJ/cm^2 of UVB radiation. After the irradiation, the phosphate buffered saline was replaced by fresh culture media and the cells were incubated overnight at 37±2° C. and 5±1% CO2. After the incubation the cell culture media was collected to measure TNF-α release by a commercial ELISA Assay kit. The cells were washed once with PBS and then a trypsin/EDTA solution was added to release the cells, followed by the addition of trypsin neutralizing solution. The cells were collected and pooled into 15 ml centrifuge tubes based on their treatment and pelleted by centrifuging at 1000 RPM at 4±2° C. After removing the supernatant, the pelleted cells were lysed by adding 500 μl of guanidinium thiocyanate lysis solution to each tube and then repeatedly drawing and releasing the solution into the pipette until the cell pellet is dissolved. Total RNA was then isolated by an RNAqueous kit (Ambion). After purifying the RNA, mRNA is isolated and the converted into anti-sense RNA (aRNA). The aRNA is then labeled with a florescent probe. In this case, Cy3 (green florescent signal) is used to label the sRNA from untreated sample, while Cy5 (red fluorescent) is used to label the aRNA of treated sample. Once the aRNA is labeled and any unincorporated dye is removed from the sample, the labeled aRNA is mixed with a hybridized solution and applied to the microarray. The microarray is then hybridized overnight at 60-65° C. After hybridization, the microarray is washed to remove any unbound aRNA probe and then scanned with a microarray scanner. Criteria for evaluating changes in gene expression may vary. In general, (1) the fluorescence intensity of the gene marker should be greater than the background intensity, and (2) the ratio of Cy5/Cy3 (treated/untreated) fluorescence intensity needs to be greater than 1.3 or less than 0.66 to indicate a change of ±30% in gene expression.

ITGB6 = experiment: Gene array analysis, keratinocytes: ITGB6; type: cell-based, Human; conditions: 35 μg/ml; UVB
Description: as §1, §2

MAP3K2 = experiment: Gene array analysis, keratinocytes: MAP3K2; type: cell-based, Human
Description: as §1
as §3, with “In this case, Cy3 (green florescent signal) is used to label the sRNA from untreated sample, while Cy5 (red fluorescent) is used to label the aRNA of treated sample. Once the aRNA is labeled and any unincorporated dye is removed from the sample, the labeled aRNA is mixed with a hybridized solution and applied to the microarray. The microarray is then hybridized overnight at 60-65° C. After hybridization, the microarray is washed to remove any unbound aRNA probe and then scanned with a microarray scanner. Criteria for evaluating changes in gene expression may vary.” left out

DEFA6 = experiment: Gene array analysis, keratinocytes: DEFA6; type: cell-based, Human; conditions: 35 μg/ml; UVB
Description: as §1, §2

PTGER1 = experiment: Gene array analysis, keratinocytes: PTGER1; type: cell-based, Human; conditions: 35 μg/ml; UVB
Description: as §1, §2

APOBEC1 = experiment: Gene array analysis, keratinocytes: APOBEC1; type: cell-based, Human; conditions: 35 μg/ml; UVB
Description: as §1, §2

[1] = tested on: Carrageenan-induced hind paw edema; experiment: Carrageenan-induced hind paw edema test on rats; type: in vivo, SD rats; conditions: for Anti-inflammatory activity (in words): carrageenan-induced edema animal study; for Avg E % of the injected paw: group average of 5 rats; for Avg E % of the injected paw / Edema % of the injected paw: 20 mg/kg i.p. pretreatment; for Volume (ml) of the injected paw / Edema % of the injected paw: individual rats (Rat 1-5); for Volume (ml) of the injected paw: 20 mg/kg i.p. 1 h before carrageenan, 20 mg/kg
Description: Male/female SD rats (180-215 g) were assigned to two groups: (1) control group and (2) test group, with 5 rats in each group. UTR-1 was first dissolved in DMSO (20 mg in 0.5 ml DMSO) and then diluted with 1% CMC (carboxymethylcellulose) to make 5 ml sample preparation. One hour before the carrageenan challenge (pretreatment), 1 ml of the sample preparation was injected i.p. into a rat in a test group. This is equivalent to 20 mg/kg (1 ml×4 mg/ml×1000 g/200 g=20 mg/kg based on the average weight per rat of 200 g). The vehicle without drug was injected in the same way into animals in the control group. In order to induce inflammation, 50 μl of a 1% carrageenan solution in normal saline was injected into the right hind paw subplantar tissue. The development of paw edema was measured by a plethysmometer (Basile 7140 plethysmometer, Ugo, Varese, Italy). After the carrageenan challenge, each paw volume (ml) was measured hourly. The Edema (E %) is calculated as follows: [formula] V0=Volume (mL) of the rear right footpad before the injection of Carrageenan Vt=Volume (mL) of the rear right footpad at “t” time after the injection of Carrageenan

TNF-α = TNF-α released from UVB-irradiated keratinocytes in vitro (ELISA); type: cell-based, Human
Description: 1. Vehicle stock: 50:50 v/v EtOH:PEG 600
2. UTR-1 stock: 3.5 mg/ml UTR-1 in a vehicle of 50:50 v/v EtOH:PEG 600
as §1, §3

[2] = array entry MAP3K2 (homo sapien), 35 μg/ml, UVB
[3] = UVB ~30 mJ/cm^2, 35 μg/ml, 24 h pretreatment

SMILES: Cc1cc(C(=O)O)no1 [UTR-1, 5-methylisoxazole-3-carboxylic acid]
- Ratio of treated/control (TUCAN): 0.333
- Suppression % (TUCAN): 67%
- Ratio of treated/control (EFA6R): 0.375
- Suppression % (EFA6R): 63%
- Ratio of treated/control (EPHB4): 0.433
- Suppression % (EPHB4): 57%
- Ratio of treated/control (JAK3; array entry JAK3 (homo sapien)): 0.386
- Suppression % (JAK3; array entry JAK3 (homo sapien)): 61%
- Ratio of treated/control (JAK3; array entry JAK3): 0.417
- Suppression % (JAK3; array entry JAK3): 58%
- Gene suppression (in words) (JAK3; gene array analysis): significantly suppressed
- Ratio of treated/control (ITGB6): 0.3
- Suppression % (ITGB6): 70%
- Ratio of treated/control (MAP3K2; [2]): 0.592
- Suppression % (MAP3K2; [2]): 40%
- Gene suppression (in words) (MAP3K2; gene array analysis): significantly suppressed
- Ratio of treated/control (DEFA6): 0.38
- Suppression % (DEFA6): 62%
- Ratio of treated/control (PTGER1): 0.286
- Suppression % (PTGER1): 71%
- Ratio of treated/control (APOBEC1): 0.333
- Suppression % (APOBEC1): 67%
- Anti-inflammatory activity (in words) [1]: surpassingly effective in anti-inflammation
- Anti-inflammatory activity (in words) ([1]; listed as 5-methylisoxazole-3-carboxylic aicd): surprisingly and unexpectedly effective in anti-inflammation
- Avg E % of the injected paw ([1]; Time 0 hr): 0.00%
- Avg E % of the injected paw ([1]; Time 1 hr): 11.90%
- Avg E % of the injected paw ([1]; Time 2 hr): 22.70%
- Avg E % of the injected paw ([1]; Time 3 hr): 37.85%
- Avg E % of the injected paw ([1]; Time 4 hr): 49.89%
- Volume (ml) of the injected paw ([1]; Time 0 hr): 1.46 ml and 1.48 ml and 1.35 ml and 1.33 ml (2×)
- Volume (ml) of the injected paw ([1]; Time 1 hr): 1.77 ml and 1.47 ml and 1.50 ml (2×) and 1.53 ml
- Volume (ml) of the injected paw ([1]; Time 2 hr): 1.92 mL and 1.53 mL and 1.65 mL and 1.66 mL and 1.75 mL
- Volume (ml) of the injected paw ([1]; Time 3 hr): 2.36 mL and 1.55 mL and 1.76 mL and 2.10 mL and 1.79 mL
- Volume (ml) of the injected paw ([1]; Time 4 hr): 2.49 mL and 1.62 mL and 1.78 mL and 2.35 mL and 2.14 mL
- Edema % of the injected paw ([1]; Time 0 hr): 0.00%
- Edema % of the injected paw ([1]; Time 1 hr): 21.23% and −0.68% and 11.11% and 15.04% and 12.78%
- Edema % of the injected paw ([1]; Time 2 hr): 31.51% and 3.38% and 22.22% and 24.81% and 31.58%
- Edema % of the injected paw ([1]; Time 3 hr): 61.64% and 4.73% and 30.37% and 57.89% and 34.59%
- Edema % of the injected paw ([1]; Time 4 hr): 70.55% and 9.46% and 31.85% and 76.69% and 60.90%
- Reduction of TNF-α secreted from stimulated keratinocyte cells (in words) (TNF-α): very effective in reducing TNF-α
- TNFα (pg/ml), Sample2 (TNF-α; [3]): 119 pg/mL
- TNFα (pg/ml), sample1 (TNF-α; [3]): 120 pg/mL
- TNFα Avg. (TNF-α; average of n=2 wells, UVB ~30 mJ/cm^2, 35 μg/ml): 120 pg/mL
